Earlier results in patent publication US12121499B2, “Pharmaceutical composition comprising the phytocannabinoids cannabidivarin (CBDV) and cannabidiol (CBD)” (priority 2011, dated 2024).
Read-outs that look alike come from different tables or passages of the source.

Legend:
[1] = tested on: grand mal seizures; conditions: 200-300 mg cannabidiol plus regular medication
[2] = biological target: CB2 receptor (Homo sapiens, UniProt P34972); conditions: WO 2007/138322
[3] = biological target: T1, CB1 receptor (Homo sapiens, UniProt P21554); conditions: WO 2007/138322
[4] = rats; WO 2007/138322
[5] = tested on: seizure frequency in epileptic patients; conditions: 200-300 mg of cannabidiol per day plus standard antiepileptic drugs; 12 epileptic patients
[6] = tested on: seizure frequency; conditions: 900-1200 mg of cannabidiol a day for 10 months; single patient
[7] = biological target: T1, CB1 receptor; conditions: WO 2006/054057; Pertwee (2000)
[8] = tested on: seizures; conditions: 5 institutionalized children not responding to phenobarbital and phenoytin
[9] = rats, doses greater than 200 mg/kg

T1 sequence (P21554 whole entry): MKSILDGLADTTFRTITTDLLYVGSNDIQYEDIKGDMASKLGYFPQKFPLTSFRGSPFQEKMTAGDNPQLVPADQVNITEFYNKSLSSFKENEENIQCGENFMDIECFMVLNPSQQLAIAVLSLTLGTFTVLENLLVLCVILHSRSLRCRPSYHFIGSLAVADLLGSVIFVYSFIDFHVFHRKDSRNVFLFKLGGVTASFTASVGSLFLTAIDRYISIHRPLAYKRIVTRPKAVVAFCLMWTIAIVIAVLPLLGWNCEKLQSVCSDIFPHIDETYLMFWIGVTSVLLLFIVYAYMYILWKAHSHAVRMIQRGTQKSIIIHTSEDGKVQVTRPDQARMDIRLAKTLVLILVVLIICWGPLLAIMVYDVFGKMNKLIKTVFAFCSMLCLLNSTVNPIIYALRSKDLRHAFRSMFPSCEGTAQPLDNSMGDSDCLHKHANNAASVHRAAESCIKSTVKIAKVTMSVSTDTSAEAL
Sequence of CB2 receptor (P34972 whole entry): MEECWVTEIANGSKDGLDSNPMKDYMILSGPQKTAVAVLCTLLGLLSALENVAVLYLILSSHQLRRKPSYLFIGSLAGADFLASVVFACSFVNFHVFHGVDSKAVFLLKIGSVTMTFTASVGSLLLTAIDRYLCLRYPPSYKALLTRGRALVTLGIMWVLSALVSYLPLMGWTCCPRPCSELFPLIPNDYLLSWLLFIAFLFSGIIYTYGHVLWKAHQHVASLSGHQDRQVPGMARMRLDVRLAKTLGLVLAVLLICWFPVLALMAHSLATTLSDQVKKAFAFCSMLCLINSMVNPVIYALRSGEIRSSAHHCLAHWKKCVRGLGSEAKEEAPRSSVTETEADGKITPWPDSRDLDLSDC

C=C(C)[C@@H]1CCC(C)=C[C@H]1c1c(O)cc(CCCCC)cc1O [CBD, Cannabidiol]
patients who remained unchanged [1]: 1 | patients who showed minor improvement [1]: 2 | patients who showed partial improvement [1]: 2 | unwanted effect [1]: mild sedation | patients who showed complete improvement ([1]; 16 grand mal patients in study): 3 | action at the CB2 receptor [2]: inverse agonist | action at the CB1 receptor [3]: inverse agonist | bodyweight [4]: reduced bodyweight | seizure frequency [5]: no significant improvement | seizure frequency [6]: markedly reduced

CCCc1cc(O)c2c(c1)OC(C)(C)[C@@H]1CCC(C)=C[C@@H]21 [THCV, Tetrahydrocannabivarin]
action at the CB1 receptor [7]: CB1 receptor antagonist

CCCCCc1cc(O)c2c(c1)OC(C)(C)[C@@H]1CCC(C)=C[C@@H]21 [THC, Tetrahydrocannabinol]
seizure outcome [8]: One became entirely free of seizures, one became almost completely free of seizures, and the other three did no worse than before

CCC1(C)CC(=O)NC1=O (stereo not drawn) [ethosuximide]
motor and other side effects [9]: notable motor and other side effects (including sedation)

CCCC(CCC)C(=O)O [valproate]
motor and other side effects [9]: notable motor and other side effects (including sedation)

CCC1(c2ccccc2)C(=O)NC(=O)NC1=O [phenobarbital]
motor and other side effects (rat models of epilepsy, doses greater than 250 mg/kg): notable motor and other side effects (including sedation)
